≈ marks a conversion by molar mass, not a printed value.
Tests used:
[1] = In vitro dissolution study (USP apparatus II); format: physicochemical; settings: phosphate buffer pH 7.5, 100 rpm, 37 ± 0.5 °C
Protocol: The dissolution study was performed in a phosphate buffer (pH 7.5) using a USP dissolution rate test apparatus II (LAB INDIA, DS 8000, Thane, India) at 100 rpm and 37 ± 0.5 °C (Figure 7). […] The enhancement in dissolution may be due to the formation of hydrogen bonds between telmisartan and maleic acid in presence of solvents. The computational simulation approach already predicted this finding. Another reason for the enhancement of dissolution may be a reduction in crystal size, solubilization effect of the carrier as well as improved wettability of the drug in presence of solvents.
A USP dissolution rate test apparatus II (LAB INDIA, DS 8000, India) was used to perform the dissolution studies of pure telmisartan and prepared multicomponent solid form (telmisartan cocrystals) in phosphate buffer medium (pH 7.5) at 37 ± 0.5 °C. An accurately weighed amount of sample was placed in a 900 mL dissolution medium and stirred at 100 rpm. At each specific time interval, a 5 mL sample was withdrawn and replaced by an equal volume of fresh pre-warmed phosphate buffer (pH 7.5) to maintain the sink condition throughout the experiment. The samples were filtered through Whatman filter paper (0.45 µm) and analyzed at 296 nm using a UV-visible spectrophotometer (UV-1800 Shimadzu, Japan). The dissolution studies were conducted in triplicate.

[2] = Equilibrium solubility analysis; format: physicochemical; settings: distilled water, 25 °C, stirred 24 h; mean ± SD, n = 3
Protocol: Improvement in solubility may due to the formation of hydrogen bonds between the imidazole rings of telmisartan and polar carboxylate hydrogens of maleic acid in presence of solvents.
The solubility analysis of telmisartan and prepared telmisartan-maleic acid cocrystals were assessed by placing an excessive amount of sample in 50 mL of distilled water at 25 °C. Then it was stirred for 24 h using a magnetic stirrer to ensure that the solution must reach equilibrium, and then sonicated (Imeco Sonifier, Imeco Ultrasonics, Pune, India) for 15 min. Then the solution was filtered and subjected to spectrophotometric analysis at 296 nm, using a UV-visible spectrophotometer (UV-1800 Shimadzu, Kyoto, Japan).

[3] = Crystallite size from PXRD data (Scherrer's formula); format: physicochemical
Protocol: An XRD study was performed to assess the physico-chemical state of telmisartan in prepared telmisartan-maleic acid cocrystals. The XRD study was performed by X-Ray Diffractometer (X’Pert Pro, Panalytical, Almelo, The Netherlands) using monochromatized Cu Kα radiation (λ = 1.54 Å) at a voltage of 45 kV and a current of 40 mA. Measurements were carried out in the angular scan range from 5° to 50° (2θ) at a scan speed of 1°/min. This study also helps to determine the size of the formed crystallite using Scherrer’s formula. Crystallite size Dp=K λ/Bcosθ, where Dp is average crystallite size (nm), K is Scherrer constant, λ is X-ray wavelength, B is FWHM (Full Width at Half Maximum) of XRD peak, and θ is XRD peak position.

[4] = Pharmacokinetic study in rats; format: in vivo; settings: male, Wistar, po, 1 mg/kg telmisartan equivalent in 0.5% w/v sodium carboxymethylcellulose, mean ± SD, n = 6
Protocol: In vivo study protocol was approved by the Institutional Animal Ethical Committee, Dr. B. C. Roy College of Pharmacy & AHS., Durgapur, West Bengal, India (Approval No: BCRCP/IAEC/8/2019). The pharmacokinetic study was performed using male Wistar rats (180–200 g). The animals were allowed to be acclimatized for a period of 1 week in our laboratory environment prior to the experiment and had free access to water and food.
The animals were divided into two groups. Group 1 (6 animals) received pure telmisartan (1 mg/kg) with 0.5% w/v sodium carboxymethylcellulose, and Group 2 (6 animals) received optimized cocrystals (equivalent to 1 mg/kg pure telmisartan) with 0.5% w/v sodium carboxymethylcellulose. Blood samples were collected at predetermined time intervals from the retro-orbital venous plexus of the rats and centrifuged for 5 min at 10,000 rpm. The plasma was separated and drug analysis was carried out by RP-HPLC method using the software ‘Class-Vp series version 5.03 (Shimadzu)’. The in vivo pharmacokinetic parameters such as peak plasma concentration (Cmax), total area under the plasma concentration-time curve (AUC0–∞), elimination rate constant (KE), and relative bioavailability (%) were calculated by using Kinetica software (version 4.4.1; Thermo Fisher Scientific, Waltham, MA, USA).

With CCCc1nc2c(C)cc(-c3nc4ccccc4n3C)cc2n1Cc1ccc(-c2ccccc2C(=O)O)cc1 [PD, Telmisartan] the “Percentage drug dissolved within 120 min” value [1] was 29.04 ± 2.06%, the solubility at 24 h [2] was 5.15 ± 1.16 µg/mL (≈ 10 µM) and the Average crystallite size [3] was 893.51 ± 42.82 nm. It also gave a k el ([4]; plasma, rat, read-out: KE (elimination rate constant) (converted)) of 3e-05 s⁻¹, an AUC(0-inf) ([4]; rat plasma) of 4180 ± 87.8 ng·h/mL and a Cmax ([4]; rat plasma) of 945 ± 27.9 ng/mL.
